The source of these data is US9403796B2, “Amidomethyl-substituted oxindole derivatives and the use thereof for the treatment of vasopressin-dependent illnesses” (AbbVie Deutschland GmbH & Co. KG, priority 2007, dated 2016).

Data set [1] deals with T1, human vasopressin V1b receptor (Homo sapiens, UniProt P47901).
T1 construct: expressed in transfected cells; host or cells: CHO-K1 (cell line hV1b_3H2_CHO), membrane preparation
T1 sequence (P47901 1-424): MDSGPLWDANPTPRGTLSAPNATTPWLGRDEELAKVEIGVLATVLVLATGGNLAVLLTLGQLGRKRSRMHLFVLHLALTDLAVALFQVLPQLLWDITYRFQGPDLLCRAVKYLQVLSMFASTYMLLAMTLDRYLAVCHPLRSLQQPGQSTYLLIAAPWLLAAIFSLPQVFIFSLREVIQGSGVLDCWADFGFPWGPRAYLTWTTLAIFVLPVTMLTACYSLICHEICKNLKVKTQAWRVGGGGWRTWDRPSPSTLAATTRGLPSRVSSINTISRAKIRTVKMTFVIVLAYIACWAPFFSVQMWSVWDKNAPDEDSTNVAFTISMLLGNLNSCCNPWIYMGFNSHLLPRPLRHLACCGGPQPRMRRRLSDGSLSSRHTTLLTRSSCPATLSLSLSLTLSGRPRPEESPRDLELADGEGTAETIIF
The data set is described as follows: Vasopressin V1b receptor binding assay. Conditions: CHO-K1 membranes, 3H-AVP displacement. As for the experimental part:
The substance concentration was further diluted 1:5 in the assay mixture (2% DMSO in the mixture).
The nonspecific binding was determined with […] (Bachem #H1780). All determinations were carried out as triplicate determinations.

Data set [2] in a line: Determination of the microsomal half-life / microsomal clearance. Format: in vitro ADME. Particulars: pH 7.4; human liver microsomes, 0.5 μM test substance. The protocol: The metabolic stability of the compounds of the invention was determined in the following assay.
The test substances were incubated in a concentration of 0.5 μM as follows:
0.5 μM test substance are preincubated together with liver microsomes from different species (from rat, human or other species) (0.25 mg of microsomal protein/ml) in 0.05 M potassium phosphate buffer of pH 7.4 in microtiter plates at 37° C. for 5 min. The reaction is started by adding NADPH (1 mg/mL). After 0, 5, 10, 15, 20 and 30 min, 50 μl aliquots are removed, and the reaction is immediately stopped and cooled with the same volume of acetonitrile. The samples are frozen until analyzed. The remaining concentration of undegraded test substance is determined by MSMS. The half-life (T½) is determined from the gradient of the signal of test substance/unit time plot, it being possible to calculate the half-life of the test substance, assuming first order kinetics, from the decrease in the concentration of the compound with time. The microsomal clearance (mCl) is calculated from mCl=In2/T½/(content of microsomal protein in mg/ml)×1000 [ml/min/mg] (modified from references: Di, The Society for Biomolecular Screening, 2003, 453-462; Obach, DMD, 1999 vol. 27. N 11, 1350-1359).
A general note: Liver microsomes are vesicles of endoplasmic reticulum, rich in cytochrome P450 enzymes.

Data set [3] concerns the target human vasopressin V1a receptor (Homo sapiens, UniProt P37288). The data set is described as follows: Vasopressin V1a receptor binding assay. Particulars: selectivity quotient, human V1a vs human V1b.

Bounds are passed on as bounds.

human vasopressin V1a receptor, sequence (P37288 whole entry): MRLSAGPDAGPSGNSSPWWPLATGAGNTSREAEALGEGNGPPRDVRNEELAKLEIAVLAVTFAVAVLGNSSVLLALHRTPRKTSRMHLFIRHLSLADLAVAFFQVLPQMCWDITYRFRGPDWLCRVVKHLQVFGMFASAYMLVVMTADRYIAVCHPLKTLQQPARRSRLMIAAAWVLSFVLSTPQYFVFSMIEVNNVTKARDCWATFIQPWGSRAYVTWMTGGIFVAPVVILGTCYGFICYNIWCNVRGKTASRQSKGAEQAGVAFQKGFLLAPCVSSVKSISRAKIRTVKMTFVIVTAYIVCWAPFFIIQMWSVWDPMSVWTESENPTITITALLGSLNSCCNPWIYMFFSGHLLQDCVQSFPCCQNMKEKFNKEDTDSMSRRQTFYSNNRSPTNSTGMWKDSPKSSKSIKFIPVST

For the molecule `CCOc1ncccc1C1(CC(=O)N2CCC(N3CCN(CC)CC3)CC2)C(=O)N(S(=O)(=O)c2ccccc2OC)c2ccc(C#N)cc21.O=C(O)C(F)(F)F` (racemic) [Example 4, (±)-3-(2-Ethoxypyridin-3-yl)-3-{2-[4-(4-ethylpiperazin-1-yl)piperidin-1-yl]-2-oxoethyl}-1-(2-methoxyphenylsulfonyl)-2-oxo-2,3-dihydro-1H-indole-5-carbonitrile, trifluoroacetic acid salt], the Ki in data set [1] fell in the range of 3 to 30 nM. Also, in data set [2], the intrinsic metabolic clearance (microsomal CLint) at 0.5 μM was 100 to 200 µL/min/mg. In addition, in data set [3], the “Ki(h-V1a)/Ki(h-V1b)” value is reported as “+++ (>30)”.

For `CCOc1ncccc1C1(CC(=O)N2CCC(N3CCN(C)CC3)CC2)C(=O)N(S(=O)(=O)c2ccccc2OC)c2ccc(C#N)cc21.O=C(O)C(F)(F)F` (racemic) [Example 5, (±)-3-(2-Ethoxypyridin-3-yl)-1-(2-methoxyphenylsulfonyl)-3-{2-[4-(4-methylpiperazin-1-yl)-piperidin-1-yl]-2-oxoethyl}-2-oxo-2,3-dihydro-1H-indole-5-carbonitrile, trifluoroacetic acid], the Ki in data set [1] lay within 3 to 30 nM. This molecule returned a microsomal CLint at 0.5 μM in data set [2] of 100 to 200 µL/min/mg. Further, in data set [3], the “Ki(h-V1a)/Ki(h-V1b)” value is given as “++ (15-30)”.

For the molecule `CCOc1ncccc1C1(CC(=O)N2CCN(C3CCN(C)CC3)CC2)C(=O)N(S(=O)(=O)c2ccccc2)c2ccc(C#N)cc21.O=C(O)C(F)(F)F` (racemic) [Example 7, (±)-1-Phenylsulfonyl-3-(2-ethoxypyridin-3-yl)-3-{2-[4-(1-methylpiperidin-4-yl)piperazin-1-yl]-2-oxoethyl}-2-oxo-2,3-dihydro-1H-indole-5-carbonitrile, trifluoroacetic acid salt], the Ki in data set [1] lay within 3 to 30 nM. In addition, the microsomal CLint at 0.5 μM in data set [2] was under 100 µL/min/mg. Further, the “Ki(h-V1a)/Ki(h-V1b)” value in data set [3] is “+++ (>30)”.

Turning to `CCOc1ncccc1C1(CC(=O)N2CCC(N3CCN(CC)CC3)CC2)C(=O)N(S(=O)(=O)c2ccc(OC)cc2OC)c2ccc(C#N)cc21.O=C(O)C(F)(F)F` (racemic) [Example 2, (±)-1-(2,4-Dimethoxyphenylsulfonyl)-3-(2-ethoxypyridin-3-yl)-3-{2-[4-(4-ethylpiperazin-1-yl)piperidin-1-yl]-2-oxoethyl}-2-oxo-2,3-dihydro-1H-indole-5-carbonitrile trifluoroacetic acid salt], the inhibitory constant (Ki) in data set [1] was under 3 nM. This molecule registered a microsomal CLint at 0.5 μM in data set [2] of under 100 µL/min/mg. Further, the “Ki(h-V1a)/Ki(h-V1b)” value in data set [3] was “+++ (>30)”.

`CCOc1ncccc1C1(CC(=O)N2CCN(C3CCN(C)CC3)CC2)C(=O)N(S(=O)(=O)c2ccc(OC)cc2OC)c2ccc(C#N)cc21.O=C(O)C(F)(F)F` (racemic) [Example 9, (±)-1-(2,4-Dimethoxyphenylsulfonyl)-3-(2-ethoxypyridin-3-yl)-3-{2-[4-(1-methylpiperidin-4-yl)piperazin-1-yl]-2-oxoethyl}-2-oxo-2,3-dihydro-1H-indole-5-carbonitrile, trifluoroacetic acid salt] displayed a Ki in data set [1] of under 3 nM. The molecule further yielded a microsomal CLint at 0.5 μM in data set [2] of under 100 µL/min/mg. Moreover, in data set [3], the “Ki(h-V1a)/Ki(h-V1b)” value is given as “+++ (>30)”.

The molecule `CCOc1ncccc1C1(CC(=O)N2CCN(C3CCN(CC)CC3)CC2)C(=O)N(S(=O)(=O)c2ccc(OC)cc2OC)c2ccc(C#N)cc21` (single isomer, unassigned; (-)) [Example 10B, (−)1-(2,4-Dimethoxyphenylsulfonyl)-3-(2-ethoxypyridin-3-yl)-3-{2-[4-(1-ethylpiperidin-4-yl)-piperazin-1-yl]-2-oxoethyl}-2-oxo-2,3-dihydro-1H-indole-5-carbonitrile] registered a Ki in data set [1] of under 3 nM. The microsomal CLint at 0.5 μM in data set [2] is under 100 µL/min/mg. For the same molecule, the “Ki(h-V1a)/Ki(h-V1b)” value in data set [3] is recorded as “+++ (>30)”.

As to `CCOc1ncccc1C1(CC(=O)N2CCN(C3CCN(C)CC3)CC2)C(=O)N(S(=O)(=O)c2ccccc2OC)c2ccc(C#N)cc21.O=C(O)C(F)(F)F` (racemic) [Example 8, (±)-3-(2-Ethoxypyridin-3-yl)-1-(2-methoxyphenylsulfonyl)-3-{2-[4-(1-methylpiperidin-4-yl)-piperazin-1-yl]-2-oxoethyl}-2-oxo-2,3-dihydro-1H-indole-5-carbonitrile, trifluoroacetic acid salt], the Ki in data set [1] lay within 3 to 30 nM. The molecule also registered a microsomal CLint at 0.5 μM in data set [2] of under 100 µL/min/mg. Moreover, the “Ki(h-V1a)/Ki(h-V1b)” value in data set [3] is “+++ (>30)”.

The molecule `CCOc1ncccc1C1(CC(=O)N2CCC(N3CCN(C)CC3)CC2)C(=O)N(S(=O)(=O)c2ccc(OC)cc2OC)c2ccc(C#N)cc21.O=C(O)C(F)(F)F` (racemic) [Example 6, (±)-1-(2,4-Dimethoxyphenylsulfonyl)-3-(2-ethoxypyridin-3-yl)-3-{2-[4-(4-methylpiperazin-1-yl)piperidin-1-yl]-2-oxoethyl}-2-oxo-2,3-dihydro-1H-indole-5-carbonitrile, trifluoroacetic acid salt] returned a Ki in data set [1] of under 3 nM. In data set [2], this molecule displayed a microsomal CLint at 0.5 μM of under 100 µL/min/mg. The “Ki(h-V1a)/Ki(h-V1b)” value in data set [3] is recorded as “+++ (>30)”.

On to `CCOc1ncccc1C1(CC(=O)N2CCC(N3CCN(CC)CC3)CC2)C(=O)N(S(=O)(=O)c2ccccc2)c2ccc(C#N)cc21.O=C(O)C(F)(F)F` (racemic) [Example 3, (±)-1-Phenylsulfonyl-3-(2-ethoxypyridin-3-yl)-3-{2-[4-(4-ethylpiperazin-1-yl)piperidin-1-yl]-2-oxoethyl}-2-oxo-2,3-dihydro-1H-indole-5-carbonitrile, trifluoroacetic acid salt], for which, in data set [1], the Ki is 3 to 30 nM. Also, the microsomal CLint at 0.5 μM in data set [2] is under 100 µL/min/mg. Moreover, the “Ki(h-V1a)/Ki(h-V1b)” value in data set [3] is “+++ (>30)”.

Molecule `CCOc1ncccc1C1(CC(=O)N2CCC(N3CCN(C)CC3)CC2)C(=O)N(S(=O)(=O)c2ccccc2)c2ccc(C#N)cc21.O=C(O)C(F)(F)F` (racemic) [Example 1, (±)-1-Phenylsulfonyl-3-(2-ethoxypyridin-3-yl)-3-{2-[4-(4-methylpiperazin-1-yl)piperidin-1-yl]-2-oxoethyl}-2-oxo-2,3-dihydro-1H-indole-5-carbonitrile, trifluoroacetic acid salt] yielded a Ki in data set [1] of 3 to 30 nM. Also, the microsomal CLint at 0.5 μM in data set [2] is under 100 µL/min/mg. Besides, the “Ki(h-V1a)/Ki(h-V1b)” value in data set [3] is listed as “++ (15-30)”.

By Ki is commonly meant the equilibrium dissociation constant of an inhibitor or competing ligand from its target. A lower Ki goes with tighter binding. One may read the microsomal CLint as a measure of how fast metabolising enzymes remove a compound, apart from limits set by blood flow. Read a low microsomal CLint as greater metabolic stability.
